Reference: patent US5001158A, “Nitrosoureas compounds preparation thereof and utilization thereof in anticancerous” (Centre National de la Recherche Scientifique, priority 1990, dated 1991)
Read-outs that look alike come from different tables or passages of the source.

Columns and labels:
Glioma 26 = system: Glioma 26; parameters: key: N.S.: Not significant; .infin.: 50% more of the treated animals are cure; conditions: days 1, 5 and 9, cited from earlier work
[1] = system: Carcinoma of the colon (colon 26); parameters: key: N.S.: Not significant; .infin.: 50% more of the treated animals are cure; conditions: days 1, 5 and 9, cited from earlier work
[2] = system: Mammary adenocarcinoma TM2; parameters: key: N.S.: Not significant; .infin.: 50% more of the treated animals are cure; conditions: days 1, 5 and 9, cited from earlier work
[3] = system: Lewis pulmonary carcinoma; parameters: key: N.S.: Not significant; .infin.: 50% more of the treated animals are cure; conditions: days 1, 5 and 9, cited from earlier work
Leukemia L 1210 = system: Leukemia L 1210; parameters: key: N.S.: Not significant; .infin.: 50% more of the treated animals are cure; conditions: days 1, 5 and 9, cited from earlier work
Fibrosarcoma I.C.I.G. C1 = system: Fibrosarcoma I.C.I.G. C1; parameters: key: N.S.: Not significant; .infin.: 50% more of the treated animals are cure; conditions: days 1, 5 and 9, cited from earlier work
Melanocarcinoma B 16 = system: Melanocarcinoma B 16; parameters: key: N.S.: Not significant; .infin.: 50% more of the treated animals are cure; conditions: days 1, 5 and 9, cited from earlier work
Ovarian M 555 = conditions: days 1, 5 and 9, cited from earlier work
[4] = 50% lethal dose (LD50 acute) in mice; type: in vivo, mice (male B6 D2 F1 /OLA); conditions: mouse, in vivo, ip, mortality before the 8th day
Procedure: (§1) Male B6 D2 F1 /OLA mice are inoculated intraperitoneally with 10^5 cells of the leukemia strain L1210 on day 0 and divided into groups. The first is the control group and the others are treated with the drugs at different concentrations on days 1, 5 and 9. The compounds are injected as a suspension in olive oil. The mortality of the animals is observed and the autopsy indicates whether it is due to leukemia or to the toxic action of the products.
(§2) The 50% lethal dose (LD50 acute) is determined by taking into account the mortality which has occurred before the 8th day among the animals treated on day D:1. The survival median of the treated animals (mT) and the control animals (mC) was established and Wilcoxon's non-parametric statistical test was applied. The results are considered positive if the index I [formula] is greater than 125 and the test Is significant at p≤0.05.

leukemia strain L1210 = assay: Antitumoral activity on leukemia L1210 i.p. in mice, unoxidized compounds (ICIG); type: in vivo, mice (male B6 D2 F1 /OLA); conditions: for % of animals surviving to 60 days / index I (survival median treated vs control): days 1,5,9
Procedure: The oncostatic activity of these nitrosated derivatives was determined at the I.C.I.G. in VILLEJUIF (Department of Prof. MATHE) following a described experimental protocol: M. HAYAT et al , Cancer Chemother. Pharmacol., 1979, 3, 217-221; R. MARAL et al., Eur. J. Med. Chem., submitted for publication.
as §1, §2

## O=NN(CCCl)C(=O)NCCO [H.E.C.N.U., 1-(2-hydroxyethyl)-3-(2-chloroethyl) 3-nitrosourea]
Glioma 26; 10 mg/kg i.p.
  Increase in the survival time (I.L.S.: T/C × 100): 182
[1]; 10 mg/kg i.p.
  Increase in the survival time (I.L.S.: T/C × 100): .infin. (50% more of the treated animals are cure)
[2]; 10 mg/kg i.p.
  Increase in the survival time (I.L.S.: T/C × 100): 165
[3]; 10 mg/kg i.p.
  Increase in the survival time (I.L.S.: T/C × 100): .infin. (50% more of the treated animals are cure)
Leukemia L 1210; 10 mg/kg i.p.
  Increase in the survival time (I.L.S.: T/C × 100): .infin. (50% more of the treated animals are cure)
Fibrosarcoma I.C.I.G. C1; 10 mg/kg i.p.
  Increase in the survival time (I.L.S.: T/C × 100): N.S.
Melanocarcinoma B 16; 10 mg/kg i.p.
  Increase in the survival time (I.L.S.: T/C × 100): 198
Ovarian M 555; 10 mg/kg i.p.
  Increase in the survival time (I.L.S.: T/C × 100): 210

## O=NN(CCCl)C(=O)N[C@H]1C(O)O[C@H](CO)[C@@H](O)[C@@H]1O (some centres unmarked) [CHLOROZOTOCIN, chlorozotocin]
Glioma 26; 15 mg/kg i.p.
  Increase in the survival time (I.L.S.: T/C × 100): N.S.
[1]; 15 mg/kg i.p.
  Increase in the survival time (I.L.S.: T/C × 100): .infin. (50% more of the treated animals are cure)
[2]; 15 mg/kg i.p.
  Increase in the survival time (I.L.S.: T/C × 100): N.S.
[3]; 15 mg/kg i.p.
  Increase in the survival time (I.L.S.: T/C × 100): N.S.
Leukemia L 1210; 15 mg/kg i.p.
  Increase in the survival time (I.L.S.: T/C × 100): N.S.
Fibrosarcoma I.C.I.G. C1; 15 mg/kg i.p.
  Increase in the survival time (I.L.S.: T/C × 100): .infin. (50% more of the treated animals are cure)
Melanocarcinoma B 16; 15 mg/kg i.p.
  Increase in the survival time (I.L.S.: T/C × 100): N.S.
Ovarian M 555; 15 mg/kg i.p.
  Increase in the survival time (I.L.S.: T/C × 100): .infin. (50% more of the treated animals are cure)

## CC(=O)SCCNC(=O)N(CCCl)N=O [(5), S-acetyl-N-[N-(2-chloroethyl)-N-nitrosocarbamoyl] cysteamine]
[4]
  LD50: 19 to 25 mg/kg
Leukemia strain L1210; 10 mg/kg i.p.
  % of animals surviving to 60 days: 14%
  index I (survival median treated vs control): .infin. (50% or more of the animals survive to day +60)
Leukemia strain L1210; 12.5 mg/kg i.p.
  % of animals surviving to 60 days: 100%
  index I (survival median treated vs control): .infin. (50% or more of the animals survive to day +60)
Leukemia strain L1210; 15 mg/kg i.p.
  % of animals surviving to 60 days: 80%
Leukemia strain L1210; 20 mg/kg i.p.
  % of animals surviving to 60 days: 25%
Leukemia strain L1210; at different doses
  survival rate after 60 days: 100%
Leukemia strain L1210; i.p., leukemia L1210
  I indices (in words): at infinity

## CC(=O)O[C@@H]1[C@H](OC(C)=O)COC(NC(=O)N(CCCl)N=O)[C@@H]1OC(C)=O (stereo partly drawn) [R.P.C.N.U., 1-(2-chloroethyl)-3-[(2'-3'-4° trioacetyl)alphabeta D-ribopyrannosyl]-1-nitrosourea]
Glioma 26; 15 mg/kg i.p.
  Increase in the survival time (I.L.S.: T/C × 100): 127
[1]; 15 mg/kg i.p.
  Increase in the survival time (I.L.S.: T/C × 100): N.S.
[2]; 15 mg/kg i.p.
  Increase in the survival time (I.L.S.: T/C × 100): 134
[3]; 15 mg/kg i.p.
  Increase in the survival time (I.L.S.: T/C × 100): N.S.
Leukemia L 1210; 15 mg/kg i.p.
  Increase in the survival time (I.L.S.: T/C × 100): N.S.
Melanocarcinoma B 16; 15 mg/kg i.p.
  Increase in the survival time (I.L.S.: T/C × 100): 151
Ovarian M 555; 15 mg/kg i.p.
  Increase in the survival time (I.L.S.: T/C × 100): .infin. (50% more of the treated animals are cure)
